Reference: ChEMBL document CHEMBL5321215, “Discovery of quinazolin-4(3H)-one derivatives as novel AChE inhibitors with anti-inflammatory activities” (Eur J Med Chem, 2023)
Activity calls are given as the source filed them. The calls are words filed in the database; no cut-off is given here.

Experiments:
[1] = target: Acetylcholinesterase (Electrophorus electricus) (UniProt O42275); assay: Inhibition of electric eel AChE using acetylthiocholine iodide as substrate at 20 uM incubated for 20 mins by Ellman's method relative to control
[2] = target: Cholinesterase (Equus caballus) (UniProt P81908); assay: Inhibition of equine serum BChE at 20 uM by Ellman's method relative to control; format: cell-free
[3] = target: T1, Cholinesterase (Equus caballus, UniProt P81908); assay: Inhibition of equine serum BChE by Ellman's method; format: cell-free
[4] = system: RAW264.7; assay: Antiinflammatory activity against mouse RAW264.7 cells assessed as inhibition of LPS-induced nitric oxide production at 20 uM preincubated for 24 hrs followed by LPS stimulation by Griess reagent-based colorimetric assay relative to control; format: functional; parameters: scale not given: the % may be the effect or the level left
[5] = target: Acetylcholinesterase (Electrophorus electricus, UniProt O42275); assay: Inhibition of electric eel AChE using acetylthiocholine iodide as substrate incubated for 20 mins by Ellman's method
[6] = target: T1, Cholinesterase; assay: Mixed type inhibition of equine serum BChE assessed as inhibition constant by Lineweaver-Burk plot analysis; format: cell-free
[7] = target: Cholinesterase (Equus caballus) (UniProt P81908); assay: Mixed type inhibition of equine serum BChE assessed as Kis by Lineweaver-Burk plot analysis; format: cell-free
[8] = target: Cholinesterase (Equus caballus) (UniProt P81908); assay: Mixed type inhibition of equine serum BChE assessed as increase in slope and Y-intercept at increasing concentration by Lineweaver-Burk plot analysis; format: cell-free
[9] = system: BV-2; assay: Cytotoxicity against mouse BV-2 cells assessed as reduction in cell viability at 10 uM incubated for 24 hrs by CCK-8 assay; format: toxicity, cell-based; details: bv-2, 24 h
[10] = system: RAW264.7; assay: Antiinflammatory activity against mouse RAW264.7 cells assessed as inhibition of LPS-induced nitric oxide production preincubated for 24 hrs followed by LPS stimulation by Griess reagent-based colorimetric assay; format: functional, cell-based
[11] = target: Acetylcholinesterase (Electrophorus electricus) (UniProt O42275); assay: Non competitive inhibition of Electric eel AChE using acetylthiocholine iodide as substrate assessed as decrease in Vmax with constant Km by Lineweaver-Burk plot analysis
[12] = target: Cholinesterase (Equus caballus) (UniProt P81908); assay: Non competitive inhibition of equine serum BChE assessed as decrease in Vmax with constant Km by Lineweaver-Burk plot analysis; format: cell-free
[13] = target: NACHT, LRR and PYD domains-containing protein 3 (Mus musculus) (UniProt Q8R4B8); assay: Inhibition of NLRP3 inflammasome in LPS-induced mouse BV-2 cells assessed as decrease in NLRP3 protein expression at 10 uM incubated for 24 hrs by Western blot analysis; format: cell-based
[14] = system: BV-2; assay: Antiinflammatory activity against mouse BV-2 cells assessed as reduction in LPS-induced CCL2 mRNA expression measured after 24 hrs by qRT-PCR analysis; format: functional, cell-based; details: dose 1.25-10 µM
[15] = system: BV-2; assay: Inhibition of NF-kappaB pathway in LPS-induced mouse BV-2 cells assessed as reduction in p65 protein expression level at 10 uM incubated for 24 hrs by Western blot analysis; format: cell-based
[16] = system: BV-2; assay: Effect on JNK protein level in LPS-induced mouse BV-2 cells at 10 uM incubated for 24 hrs by Western blot analysis; format: functional, cell-based
[17] = system: BV-2; assay: Inhibition of MAPK/JNK signalling pathway in LPS-induced mouse BV-2 cells assessed as reduction in JNK phosphorylation level at 10 uM incubated for 24 hrs by Western blot analysis; format: cell-based
[18] = system: BV-2; assay: Antiinflammatory activity against mouse BV-2 cells assessed as reduction in LPS-induced TNF-alpha mRNA expression measured after 24 hrs by qRT-PCR analysis; format: functional, cell-based; details: dose 1.25-10 µM
[19] = system: BV-2; assay: Antiinflammatory activity against mouse BV-2 cells assessed as reduction in LPS-induced IL-1beta mRNA expression measured after 24 hrs by qRT-PCR analysis; format: functional, cell-based; details: dose 1.25-10 µM
[20] = system: BV-2; assay: Antiinflammatory activity against mouse BV-2 cells assessed as reduction in LPS-induced IL-6 mRNA expression level measured after 24 hrs by qRT-PCR analysis; format: functional, cell-based; details: dose 1.25-10 µM
[21] = system: BV-2; assay: Inhibition of NF-kappaB pathway in LPS-induced mouse BV-2 cells assessed as reduction in phosphorylated p65 protein expression level at 10 uM incubated for 24 hrs by Western blot analysis; format: cell-based

Acetylcholinesterase (Electrophorus electricus), sequence (O42275 24-633 limits assumed): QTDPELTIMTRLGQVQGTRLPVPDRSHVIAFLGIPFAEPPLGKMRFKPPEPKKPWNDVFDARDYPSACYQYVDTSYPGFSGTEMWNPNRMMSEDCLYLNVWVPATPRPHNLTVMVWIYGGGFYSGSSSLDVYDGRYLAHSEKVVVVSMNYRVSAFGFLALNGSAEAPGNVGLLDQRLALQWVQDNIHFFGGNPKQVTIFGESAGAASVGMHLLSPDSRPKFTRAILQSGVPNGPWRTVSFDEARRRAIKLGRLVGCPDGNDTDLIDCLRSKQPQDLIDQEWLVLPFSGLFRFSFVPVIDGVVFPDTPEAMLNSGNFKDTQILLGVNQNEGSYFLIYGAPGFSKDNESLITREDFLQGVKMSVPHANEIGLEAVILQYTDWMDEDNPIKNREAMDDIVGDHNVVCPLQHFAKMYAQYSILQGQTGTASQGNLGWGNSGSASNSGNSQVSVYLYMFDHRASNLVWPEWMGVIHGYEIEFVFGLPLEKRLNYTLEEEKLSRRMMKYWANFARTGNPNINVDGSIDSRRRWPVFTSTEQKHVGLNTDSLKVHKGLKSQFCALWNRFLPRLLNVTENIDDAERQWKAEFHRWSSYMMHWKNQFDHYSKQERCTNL
Acetylcholinesterase, sequence (O42275 whole entry): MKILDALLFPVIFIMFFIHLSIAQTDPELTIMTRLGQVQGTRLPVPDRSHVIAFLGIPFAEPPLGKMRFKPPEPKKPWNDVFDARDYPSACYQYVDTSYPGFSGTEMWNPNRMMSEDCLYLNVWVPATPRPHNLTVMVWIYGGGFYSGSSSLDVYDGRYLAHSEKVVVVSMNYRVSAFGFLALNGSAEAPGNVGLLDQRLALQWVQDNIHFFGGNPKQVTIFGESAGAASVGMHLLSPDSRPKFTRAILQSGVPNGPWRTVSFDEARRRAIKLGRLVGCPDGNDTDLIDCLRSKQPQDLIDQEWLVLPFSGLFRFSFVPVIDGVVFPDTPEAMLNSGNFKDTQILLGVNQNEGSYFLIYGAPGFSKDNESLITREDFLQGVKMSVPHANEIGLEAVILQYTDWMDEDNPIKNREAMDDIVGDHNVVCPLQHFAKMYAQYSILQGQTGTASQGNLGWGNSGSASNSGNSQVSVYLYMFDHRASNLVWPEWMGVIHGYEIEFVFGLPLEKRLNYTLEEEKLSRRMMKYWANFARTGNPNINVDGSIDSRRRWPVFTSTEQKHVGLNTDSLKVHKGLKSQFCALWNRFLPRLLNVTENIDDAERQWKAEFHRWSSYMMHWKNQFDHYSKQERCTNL
Cholinesterase (Equus caballus), sequence (P81908 whole entry, the tested form may be a part): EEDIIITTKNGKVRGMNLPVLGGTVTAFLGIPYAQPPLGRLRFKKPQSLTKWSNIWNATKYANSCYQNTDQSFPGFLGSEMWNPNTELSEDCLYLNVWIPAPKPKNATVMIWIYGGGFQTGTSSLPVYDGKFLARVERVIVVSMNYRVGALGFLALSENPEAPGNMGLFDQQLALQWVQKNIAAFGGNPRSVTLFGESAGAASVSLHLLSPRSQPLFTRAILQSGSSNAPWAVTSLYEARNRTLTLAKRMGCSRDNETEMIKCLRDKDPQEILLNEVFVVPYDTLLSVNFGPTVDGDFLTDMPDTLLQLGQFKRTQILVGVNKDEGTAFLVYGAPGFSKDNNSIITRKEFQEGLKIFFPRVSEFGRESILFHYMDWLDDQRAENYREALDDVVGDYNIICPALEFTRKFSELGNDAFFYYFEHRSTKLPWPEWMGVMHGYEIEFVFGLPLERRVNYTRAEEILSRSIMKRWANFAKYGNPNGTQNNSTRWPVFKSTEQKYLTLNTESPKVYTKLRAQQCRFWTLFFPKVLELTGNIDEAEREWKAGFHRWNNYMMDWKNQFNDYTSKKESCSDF
T1 sequence (P81908 whole entry): as the sequence (P81908 whole entry, the tested form may be a part) above
NACHT, LRR and PYD domains-containing protein 3 (Mus musculus), sequence (Q8R4B8 whole entry, the tested form may be a part): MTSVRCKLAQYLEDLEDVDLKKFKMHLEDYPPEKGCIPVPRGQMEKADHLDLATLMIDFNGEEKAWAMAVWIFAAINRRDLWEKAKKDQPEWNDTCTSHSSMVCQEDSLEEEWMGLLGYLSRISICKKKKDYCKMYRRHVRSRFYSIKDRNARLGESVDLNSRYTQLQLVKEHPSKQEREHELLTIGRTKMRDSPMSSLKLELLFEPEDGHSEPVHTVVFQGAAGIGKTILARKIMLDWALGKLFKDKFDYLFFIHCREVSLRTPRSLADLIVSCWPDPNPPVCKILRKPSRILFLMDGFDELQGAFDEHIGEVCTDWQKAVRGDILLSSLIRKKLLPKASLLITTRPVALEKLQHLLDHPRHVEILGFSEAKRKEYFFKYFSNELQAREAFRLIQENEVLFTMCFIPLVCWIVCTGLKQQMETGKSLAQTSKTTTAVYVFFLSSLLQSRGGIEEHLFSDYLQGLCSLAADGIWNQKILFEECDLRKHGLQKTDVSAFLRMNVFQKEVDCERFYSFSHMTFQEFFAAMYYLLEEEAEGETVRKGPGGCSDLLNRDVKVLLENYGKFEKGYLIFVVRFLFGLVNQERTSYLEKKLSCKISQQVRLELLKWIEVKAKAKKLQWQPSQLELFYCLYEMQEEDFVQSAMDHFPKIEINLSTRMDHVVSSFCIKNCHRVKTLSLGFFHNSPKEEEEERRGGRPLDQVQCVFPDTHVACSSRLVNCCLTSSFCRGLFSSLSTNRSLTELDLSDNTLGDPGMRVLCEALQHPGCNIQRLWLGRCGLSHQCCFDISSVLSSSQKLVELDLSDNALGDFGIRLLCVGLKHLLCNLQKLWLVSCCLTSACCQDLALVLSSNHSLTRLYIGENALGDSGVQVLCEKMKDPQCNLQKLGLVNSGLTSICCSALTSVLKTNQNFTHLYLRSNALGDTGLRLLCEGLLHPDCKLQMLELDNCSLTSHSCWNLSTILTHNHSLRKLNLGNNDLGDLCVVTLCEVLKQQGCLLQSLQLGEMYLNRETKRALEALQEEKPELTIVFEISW

Structure (SMILES) | inhibition [1] [%] | inhibition [2] | further results
COc1cc(-c2nc3ccc(NC(=O)CCl)cc3c(=O)[nH]2)cc(OC)c1OC | 32.5 | 9.51% | 
CN1CCN(c2ccc(-c3nc4ccccc4c(=O)[nH]3)cc2)CC1 | 68.1 | 24.1% | IC50 [3]: > 20 µM; Activity [4]: 45.6%; IC50 [5]: 30.4 µM
COc1cc(-c2nc3ccc(NC(=O)c4ccc(Br)cc4)cc3c(=O)[nH]2)cc(OC)c1OC | 23.5 | 8.3% | 
COc1cc(-c2nc3ccc(Br)cc3c(=O)[nH]2)cc(OC)c1OC | 33.8 | 12.4% | 
COc1cc(OC)c2c(=O)[nH]c(-c3cc(OC)c(OC)c(OC)c3)nc2c1 | 38.7 | 10.9% | 
COc1cc(OC)c2c(=O)[nH]c(-c3ccc(N4CCN(C(=O)OC(C)(C)C)CC4)cc3)nc2c1 | 37.4 | inactive | 
CN1CCN(c2ccc(-c3nc4ccc(N)cc4c(=O)[nH]3)cc2)CC1 | 58.6 | 3.32% | 
CCN(CC)c1ccc(-c2nc3cc(OC)cc(OC)c3c(=O)[nH]2)cc1 | 23.7 | inactive | 
COc1cc(OC)c2c(=O)[nH]c(-c3cn(Cc4ccccc4)cn3)nc2c1 | 87.9 | 95% | Ki [6]: 0.74 µM; Kis [7]: 8.58 µM; IC50 [3]: 0.83 µM; inhibition [8]: Active; Activity [4]: 33.4%; IC50 [5]: 7.01 µM; Activity [9]: Toxic
COc1cc(-c2nc3ccc([N+](=O)[O-])cc3c(=O)[nH]2)cc(OC)c1OC | 2.52 | inactive | 
COc1cc(-c2nc3ccc(NC(=O)CN4CCCCC4)cc3c(=O)[nH]2)cc(OC)c1OC | 24.6 | inactive | 
COc1cc(OC)c2c(=O)[nH]c(-c3ccc(-c4ccncc4)cc3)nc2c1 | 30.9 | 1.72% | 
O=c1[nH]c(C2CCN(Cc3ccccc3)CC2)nc2ccccc12 | 63.3 | 48.6% | 
COc1cc(OC)c2c(=O)[nH]c(C(=O)c3ccc(O)cc3)nc2c1 | 7.74 | inactive | 
CN1CCN(c2ccc(-c3nc4ccc([N+](=O)[O-])cc4c(=O)[nH]3)cc2)CC1 | 69.4 | 63.7% | IC50 [3]: > 100 µM; Activity [4]: 27.1%; IC50 [5]: 5.49 µM
O=c1[nH]c(C2CCN(Cc3ccccc3)CC2)nc2ccc([N+](=O)[O-])cc12 | 59.6 | inactive | IC50 [3]: > 20 µM; Activity [4]: 40.4%; IC50 [5]: 6.86 µM
COc1cc(OC)c2c(=O)[nH]c(-c3cccs3)nc2c1 | 44.2 | 35.3% | 
O=c1[nH]c(C2CCN(Cc3ccccc3)CC2)nc2ccc(Br)cc12 | 31.7 | 14.6% | 
COc1cc(-c2nc3ccc(NC(=O)CCN4CCCCC4)cc3c(=O)[nH]2)cc(OC)c1OC | 26.1 | 14.6% | 

Structure (SMILES) | inhibition [1] [%] | inhibition [2] | further results
COc1cc(-c2nc3ccc(NC(=O)c4ccc(F)cc4)cc3c(=O)[nH]2)cc(OC)c1OC | 6.3 | 12.7% | 
COc1cc(OC)c2c(=O)[nH]c(C3CCN(Cc4ccccc4)CC3)nc2c1 | 83.4 | 59.1% | IC50 [10]: 21.3 µM; IC50 [3]: 36.9 µM; Activity [4]: 60.5%; IC50 [5]: 7.88 µM
COc1cc(-c2nc3ccc(NCC4CCN(Cc5ccccc5)CC4)cc3c(=O)[nH]2)cc(OC)c1OC | 69 | 68.6% | IC50 [3]: 11.2 µM; inhibition [11]: Active; inhibition [12]: Active; Activity [4]: 94%; IC50 [5]: 4.31 µM; Activity [9]: Toxic
COc1cc(-c2nc3ccc(NCc4ccc(N5CCN(C)CC5)cc4)cc3c(=O)[nH]2)cc(OC)c1OC | 23.6 | inactive | 
COc1cc(-c2nc3ccc(NC(=O)c4ccc(Cl)cc4)cc3c(=O)[nH]2)cc(OC)c1OC | 10.6 | 14.9% | 
COc1cc(-c2nc3ccc(NC(=O)CCN4CCC(O)CC4)cc3c(=O)[nH]2)cc(OC)c1OC | 20.2 | 15.8% | 
COc1cc(OC)c2c(=O)[nH]c(-c3ccc(N4CCN(CCO)CC4)cc3)nc2c1 | 62.4 | 3.32% | 
COc1cc(-c2nc3ccc(NC(=O)CCN4CCN(C)CC4)cc3c(=O)[nH]2)cc(OC)c1OC | 24.7 | inactive | 
COc1cc(OC)c2c(=O)[nH]c(-c3c[nH]cn3)nc2c1 | 40.4 | 13.1% | 
COc1cc(OC)c2c(=O)[nH]c(-c3ccc(O[C@@H]4O[C@H](CO)[C@@H](O)[C@@H](O)[C@H]4O)cc3)nc2c1 | 32.8 | 11.3% | 
CN1CCN(c2ccc(-c3nc4ccc(Br)cc4c(=O)[nH]3)cc2)CC1 | 60.8 | 31.2% | IC50 [3]: > 20 µM; Activity [4]: 42.7%; IC50 [5]: 16.1 µM
COc1cc(-c2nc3ccccc3c(=O)[nH]2)cc(OC)c1OC | 47.9 | 32.9% | 
C[C@@H]1C[C@H]2[C@@H]3CCC4=CC(=O)C=C[C@]4(C)[C@@]3(F)[C@@H](O)C[C@]2(C)[C@@]1(O)C(=O)CO [DEXAMETHASONE] |  |  | IC50 [10]: 11.5 µM; Activity [4]: 60.3%
COc1cc(OC)c2c(=O)[nH]c(-c3nc[nH]c3C)nc2c1 | 60.8 | 25.9% | IC50 [3]: > 20 µM; Activity [4]: 61.2%; IC50 [5]: 28.1 µM
COc1cc(OC)c2c(=O)[nH]c(-c3ccc(N4CCN(C)CC4)cc3)nc2c1 | 91.8 | 38.7% | IC50 [10]: 3.29 µM; inhibition [13]: Active; Activity [14]: Dose-Dependent Effect; inhibition [15]: Active; IC50 [3]: > 20 µM; Activity [16]: Active; inhibition [17]: Active; inhibition [11]: Active; Activity [18]: Dose-Dependent Effect; Activity [19]: Dose-Dependent Effect; Activity [4]: 116.4%; IC50 [5]: 5.04 µM; Activity [20]: Dose-Dependent Effect; Activity [9]: Non-Toxic; inhibition [21]: Active
COc1cc(OC)c2c(=O)[nH]c(C(=O)c3cc(OC)c(OC)c(OC)c3)nc2c1 | 23.1 | inactive | 
COc1cc(OC)c2c(=O)[nH]c(-c3ccc(N4CCNCC4)cc3)nc2c1 | 44.2 | inactive | 
COc1cc(OC)c2c(=O)[nH]c(-c3ccc(N4CCOCC4)cc3)nc2c1 | 47.3 | 16.5% | 
COc1cc(OC)c2c(=O)[nH]c(-c3c[nH]c4ccccc34)nc2c1 | 31.9 | 8.91% | 
